The target in one test is C-Raf (Homo sapiens, UniProt P04049). In words: Kinase activity assay, C-Raf.
For a further test, the target named is B-Raf (Homo sapiens, UniProt P15056). In words: Kinase activity assay, B-Raf. Conditions: read-out: activity toward kinase B-Raf, IC50. The class given is biochemical.
A further test deals with B-Raf V600E (Homo sapiens, UniProt P15056, V600E). As to the kind of experiment: Kinase activity assay, B-Raf V600E. The class given is biochemical. Conditions: read-out: activity toward kinase B-Raf V600E, IC50.
Sequence of B-Raf V600E (P15056 whole entry V600E): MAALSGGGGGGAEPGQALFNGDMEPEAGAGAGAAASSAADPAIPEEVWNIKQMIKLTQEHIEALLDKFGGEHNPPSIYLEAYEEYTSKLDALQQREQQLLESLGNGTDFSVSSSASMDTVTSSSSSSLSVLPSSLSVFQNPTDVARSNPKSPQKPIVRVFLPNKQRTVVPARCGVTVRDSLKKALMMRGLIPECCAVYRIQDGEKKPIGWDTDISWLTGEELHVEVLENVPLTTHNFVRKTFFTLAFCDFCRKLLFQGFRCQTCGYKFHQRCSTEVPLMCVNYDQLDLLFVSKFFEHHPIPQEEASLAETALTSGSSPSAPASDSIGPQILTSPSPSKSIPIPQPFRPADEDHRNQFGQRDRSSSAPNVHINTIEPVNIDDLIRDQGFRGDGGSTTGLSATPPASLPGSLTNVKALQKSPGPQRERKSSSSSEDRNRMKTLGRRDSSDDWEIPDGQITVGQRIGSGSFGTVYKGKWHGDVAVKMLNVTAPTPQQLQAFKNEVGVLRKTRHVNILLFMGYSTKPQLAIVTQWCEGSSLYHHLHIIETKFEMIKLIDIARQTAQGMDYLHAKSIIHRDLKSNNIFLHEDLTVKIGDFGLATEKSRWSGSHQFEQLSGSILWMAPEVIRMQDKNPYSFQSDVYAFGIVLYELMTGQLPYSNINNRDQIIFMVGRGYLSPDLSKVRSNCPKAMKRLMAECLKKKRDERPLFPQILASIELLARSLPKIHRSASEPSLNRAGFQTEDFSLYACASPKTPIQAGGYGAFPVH
A further test concerns the target Kdr (Homo sapiens, UniProt P35968). In words: Kinase activity assay, Kdr.

Sequence of C-Raf (P04049 whole entry): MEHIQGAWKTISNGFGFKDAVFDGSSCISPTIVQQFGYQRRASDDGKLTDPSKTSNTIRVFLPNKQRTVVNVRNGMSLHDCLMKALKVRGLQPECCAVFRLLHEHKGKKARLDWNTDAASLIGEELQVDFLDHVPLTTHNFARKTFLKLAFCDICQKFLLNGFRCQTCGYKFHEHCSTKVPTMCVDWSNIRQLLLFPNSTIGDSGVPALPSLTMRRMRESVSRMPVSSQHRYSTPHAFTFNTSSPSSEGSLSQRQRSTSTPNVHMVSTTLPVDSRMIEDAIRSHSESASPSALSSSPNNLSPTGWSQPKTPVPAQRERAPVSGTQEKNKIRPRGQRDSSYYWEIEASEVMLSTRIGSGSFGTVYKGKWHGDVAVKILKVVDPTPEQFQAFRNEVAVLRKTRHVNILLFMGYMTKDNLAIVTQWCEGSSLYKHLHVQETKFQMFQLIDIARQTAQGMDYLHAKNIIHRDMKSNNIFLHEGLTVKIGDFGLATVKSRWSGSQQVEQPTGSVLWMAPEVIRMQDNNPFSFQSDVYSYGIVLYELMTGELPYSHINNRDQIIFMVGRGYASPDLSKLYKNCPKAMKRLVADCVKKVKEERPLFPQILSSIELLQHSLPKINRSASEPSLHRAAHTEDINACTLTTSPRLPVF
Sequence of B-Raf (P15056 whole entry): as the sequence (P15056 whole entry V600E) above, with E600V counted along it
Sequence of Kdr (P35968 20-1356): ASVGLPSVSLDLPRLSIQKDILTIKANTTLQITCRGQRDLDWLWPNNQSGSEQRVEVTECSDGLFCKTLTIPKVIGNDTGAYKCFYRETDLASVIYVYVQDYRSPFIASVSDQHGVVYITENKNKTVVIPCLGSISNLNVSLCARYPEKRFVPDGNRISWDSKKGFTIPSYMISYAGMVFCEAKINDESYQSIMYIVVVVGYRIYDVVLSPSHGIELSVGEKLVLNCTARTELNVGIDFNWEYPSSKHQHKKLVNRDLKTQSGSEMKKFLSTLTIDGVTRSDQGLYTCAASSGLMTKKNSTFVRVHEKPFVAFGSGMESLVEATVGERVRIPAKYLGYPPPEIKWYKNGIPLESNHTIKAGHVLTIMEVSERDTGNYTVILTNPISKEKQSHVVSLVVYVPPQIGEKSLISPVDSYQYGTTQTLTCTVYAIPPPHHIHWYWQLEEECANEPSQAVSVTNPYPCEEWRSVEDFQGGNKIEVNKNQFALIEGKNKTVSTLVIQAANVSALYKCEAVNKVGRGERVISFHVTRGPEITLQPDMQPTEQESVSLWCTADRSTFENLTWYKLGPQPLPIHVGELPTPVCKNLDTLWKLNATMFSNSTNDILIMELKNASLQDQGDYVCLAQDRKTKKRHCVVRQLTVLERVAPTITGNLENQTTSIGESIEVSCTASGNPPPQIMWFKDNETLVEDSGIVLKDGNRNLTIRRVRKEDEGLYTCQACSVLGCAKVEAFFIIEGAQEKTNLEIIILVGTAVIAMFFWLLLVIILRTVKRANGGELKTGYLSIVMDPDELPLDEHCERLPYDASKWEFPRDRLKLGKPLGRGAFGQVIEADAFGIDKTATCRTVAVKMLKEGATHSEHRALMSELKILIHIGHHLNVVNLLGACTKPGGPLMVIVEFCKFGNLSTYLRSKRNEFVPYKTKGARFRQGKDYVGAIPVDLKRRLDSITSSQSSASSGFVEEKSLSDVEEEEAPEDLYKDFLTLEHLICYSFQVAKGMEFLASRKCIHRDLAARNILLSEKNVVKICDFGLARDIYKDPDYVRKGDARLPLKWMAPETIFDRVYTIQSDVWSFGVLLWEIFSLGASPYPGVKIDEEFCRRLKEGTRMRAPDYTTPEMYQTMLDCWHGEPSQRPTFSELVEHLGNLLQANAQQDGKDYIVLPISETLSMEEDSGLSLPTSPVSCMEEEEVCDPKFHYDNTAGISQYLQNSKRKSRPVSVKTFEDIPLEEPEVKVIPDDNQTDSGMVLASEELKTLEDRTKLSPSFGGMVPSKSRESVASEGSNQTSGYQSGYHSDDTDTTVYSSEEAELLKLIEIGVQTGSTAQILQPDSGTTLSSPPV

As usually defined, the IC50 is the point on the concentration scale where inhibition reaches its midpoint. As for `N#Cc1cnc2[nH]cc(C(=O)c3c(F)ccc(NS(=O)(=O)c4ccc(F)cc4)c3F)c2c1` [P-2028, N-[3-(5-Cyano-1H-pyrrolo[2,3-b]pyridine-3-carbonyl)-2,4-difluoro-phenyl]-4-fluoro-benzenesulfonamide], the 50% inhibitory concentration (IC50) against C-Raf, at B-Raf and at B-Raf V600E was ≤ 10 µM in each case.

`N#Cc1cnc2[nH]cc(C(=O)c3cccc(NS(=O)(=O)c4ccc(F)cc4)c3F)c2c1` [P-2050, N-[3-(5-Cyano-1H-pyrrolo[2,3-b]pyridine-3-carbonyl)-2-fluoro-phenyl]-4-fluoro-benzenesulfonamide]: the IC50 at C-Raf, at B-Raf and on B-Raf V600E was ≤ 10 µM throughout.

For the compound `COc1ccnc2[nH]cc(C(=O)c3c(F)ccc(NS(=O)(=O)c4ncn[nH]4)c3F)c12` [P-2068, 2H-[1,2,4]Triazole-3-sulfonic acid [2,4-difluoro-3-(4-methoxy-1H-pyrrolo[2,3-b]pyridine-3-carbonyl)-phenyl]-amide], the IC50 against C-Raf and at B-Raf V600E was ≤ 10 µM throughout.

Take `Cc1oncc1S(=O)(=O)Nc1ccc(F)c(C(=O)c2c[nH]c3ncc(C#N)cc23)c1F` [P-2081, 5-Methyl-isoxazole-4-sulfonic acid [3-(5-cyano-1H-pyrrolo[2,3-b]pyridine-3-carbonyl)-2,4-difluoro-phenyl]-amide]: the half-inhibitory concentration (IC50) against C-Raf, on B-Raf V600E and against Kdr was ≤ 10 µM throughout.

As for `Cc1c(S(=O)(=O)Nc2ccc(F)c(C(=O)c3c[nH]c4ncc(C#N)cc34)c2F)cnn1C` [P-2082, 1,5-Dimethyl-1H-pyrazole-4-sulfonic acid [3-(5-cyano-1H-pyrrolo[2,3-b]pyridine-3-carbonyl)-2,4-difluoro-phenyl]-amide], the IC50 on B-Raf V600E and at Kdr was ≤ 10 µM in each case.

Regarding `CCn1cc(S(=O)(=O)Nc2ccc(F)c(C(=O)c3c[nH]c4ncc(C#N)cc34)c2F)cn1` [P-2083, 1-Ethyl-1H-pyrazole-4-sulfonic acid [3-(5-cyano-1H-pyrrolo[2,3-b]pyridine-3-carbonyl)-2,4-difluoro-phenyl]-amide], the IC50 at C-Raf and at B-Raf V600E was ≤ 10 µM throughout.

Consider `Cn1cc(S(=O)(=O)Nc2ccc(F)c(C(=O)c3c[nH]c4ncc(C#N)cc34)c2F)cn1` [P-2084, 1-Methyl-1H-pyrazole-4-sulfonic acid [3-(5-cyano-1H-pyrrolo[2,3-b]pyridine-3-carbonyl)-2,4-difluoro-phenyl]-amide], for which the IC50 at C-Raf, at B-Raf and on B-Raf V600E was ≤ 10 µM throughout.

As to `COc1ccc(S(=O)(=O)Nc2ccc(F)c(C(=O)c3c[nH]c4ncc(C#N)cc34)c2F)cn1` [P-2085, 6-Methoxy-pyridine-3-sulfonic acid [3-(5-cyano-1H-pyrrolo[2,3-b]pyridine-3-carbonyl)-2,4-difluoro-phenyl]-amide], the concentration for half-maximal inhibition (IC50) against C-Raf, at B-Raf and on B-Raf V600E was ≤ 10 µM each time.

Consider `CCn1cc(S(=O)(=O)Nc2cccc(C(=O)c3c[nH]c4ncc(C#N)cc34)c2F)cn1` [P-2089, 1-Ethyl-1H-pyrazole-4-sulfonic acid [3-(5-cyano-1H-pyrrolo[2,3-b]pyridine-3-carbonyl)-2-fluoro-phenyl]-amide], for which the IC50 against C-Raf, at B-Raf V600E and against Kdr was ≤ 10 µM throughout.

As for `Cc1c(S(=O)(=O)Nc2cccc(C(=O)c3c[nH]c4ncc(C#N)cc34)c2F)cnn1C` [P-2091, 1,5-Dimethyl-1H-pyrazole-4-sulfonic acid [3-(5-cyano-1H-pyrrolo[2,3-b]pyridine-3-carbonyl)-2-fluoro-phenyl]-amide], the 50% inhibitory concentration (IC50) at B-Raf V600E was ≤ 10 µM.

Consider `COc1ccc(S(=O)(=O)Nc2cccc(C(=O)c3c[nH]c4ncc(C#N)cc34)c2F)cn1` [P-2092, 6-Methoxy-pyridine-3-sulfonic acid [3-(5-cyano-1H-pyrrolo[2,3-b]pyridine-3-carbonyl)-2-fluoro-phenyl]-amide], for which the IC50 against C-Raf and at B-Raf V600E was ≤ 10 µM throughout.

Regarding `N#Cc1cnc2[nH]cc(C(=O)c3c(F)ccc(NS(=O)(=O)Cc4ccccn4)c3F)c2c1` [P-2093, N-[3-(5-Cyano-1H-pyrrolo[2,3-b]pyridine-3-carbonyl)-2,4-difluoro-phenyl]-C-pyridin-2-yl-methanesulfonamide], the IC50 on B-Raf V600E and against Kdr was ≤ 10 µM throughout.

Turning to `N#Cc1cnc2[nH]cc(C(=O)c3c(F)ccc(NS(=O)(=O)Cc4ccncc4)c3F)c2c1` [P-2095, N-[3-(5-Cyano-1H-pyrrolo[2,3-b]pyridine-3-carbonyl)-2,4-difluoro-phenyl]-C-pyridin-4-yl-methanesulfonamide], the IC50 at B-Raf V600E and against Kdr was ≤ 10 µM in each case.

`N#Cc1cnc2[nH]cc(C(=O)c3cccc(NS(=O)(=O)Cc4cccnc4)c3F)c2c1` [P-2096, N-[3-(5-Cyano-1H-pyrrolo[2,3-b]pyridine-3-carbonyl)-2-fluoro-phenyl]-C-pyridin-3-yl-methanesulfonamide]: the IC50 on B-Raf V600E and against Kdr was ≤ 10 µM throughout.

As to `N#Cc1cnc2[nH]cc(C(=O)c3cccc(NS(=O)(=O)Cc4ccncc4)c3F)c2c1` [P-2097, N-[3-(5-Cyano-1H-pyrrolo[2,3-b]pyridine-3-carbonyl)-2-fluoro-phenyl]-C-pyridin-4-yl-methanesulfonamide], the IC50 on B-Raf V600E and against Kdr was ≤ 10 µM throughout.

As to `N#Cc1cnc2[nH]cc(C(=O)c3cccc(NS(=O)(=O)Cc4ccccn4)c3F)c2c1` [P-2098, N-[3-(5-Cyano-1H-pyrrolo[2,3-b]pyridine-3-carbonyl)-2-fluoro-phenyl]-C-pyridin-2-yl-methanesulfonamide], at B-Raf V600E, the IC50 is ≤ 10 µM.

For `CCCS(=O)(=O)Nc1ccc(F)c(C(=O)c2c[nH]c3ncc(S(C)(=O)=O)cc23)c1F` [P-2173, Propane-1-sulfonic acid [2,4-difluoro-3-(5-methanesulfonyl-1H-pyrrolo[2,3-b]pyridine-3-carbonyl)-phenyl]-amide], the concentration for half-maximal inhibition (IC50) on B-Raf and on B-Raf V600E was ≤ 10 µM throughout.

With `CCCS(=O)(=O)Nc1ccc(F)c(C(=O)c2c[nH]c3ncc(-c4ccc(S(=O)(=O)N5CCCCC5)cc4)cc23)c1F` [P-2186, Propane-1-sulfonic acid (2,4-difluoro-3-{5-[4-(piperidine-1-sulfonyl)-phenyl]-1H-pyrrolo[2,3-b]pyridine-3-carbonyl}-phenyl)-amide], the IC50 at B-Raf, at B-Raf V600E and on Kdr was ≤ 10 µM in each case.

For the compound `CCCS(=O)(=O)Nc1ccc(F)c(C(=O)c2c[nH]c3ncc(-c4cnc(SC)nc4)cc23)c1F` [P-2189, Propane-1-sulfonic acid {2,4-difluoro-3-[5-(2-methylsulfanyl-pyrimidin-5-yl)-1H-pyrrolo[2,3-b]pyridine-3-carbonyl]-phenyl}-amide], the 50% inhibitory concentration (IC50) on B-Raf, at B-Raf V600E and on Kdr was ≤ 10 µM in each case.

As to `CCCS(=O)(=O)Nc1ccc(F)c(C(=O)c2c[nH]c3ncc(-c4cnc(N5CCOCC5)nc4)cc23)c1F` [P-2197, Propane-1-sulfonic acid {2,4-difluoro-3-[5-(2-morpholin-4-yl-pyrimidin-5-yl)-1H-pyrrolo[2,3-b]pyridine-3-carbonyl]-phenyl}-amide], the half-inhibitory concentration (IC50) on B-Raf, at B-Raf V600E and against Kdr was ≤ 10 µM in each case.

For `CS(=O)(=O)Nc1ccc(F)c(C(=O)c2c[nH]c3ncc(C#N)cc23)c1F` [P-2294, N-[3-(5-Cyano-1H-pyrrolo[2,3-b]pyridine-3-carbonyl)-2,4-difluoro-phenyl]-methanesulfonamide], the concentration for half-maximal inhibition (IC50) against C-Raf, at B-Raf V600E and on Kdr was ≤ 10 µM each time.

Turning to `O=C(c1c(F)ccc(NS(=O)(=O)C2(C(=O)O)CC2)c1F)c1c[nH]c2ncc(Br)cc12` [P-2349, 1-[3-(5-Bromo-1H-pyrrolo[2,3-b]pyridine-3-carbonyl)-2,4-difluoro-phenylsulfamoyl]-cyclopropanecarboxylic acid], the half-maximal inhibitory concentration (IC50) against Kdr was ≤ 10 µM.

Take `CC(C)S(=O)(=O)Nc1cccc(C(=O)c2c[nH]c3ncc(C#N)cc23)c1F` [P-2411, Propane-2-sulfonic acid [3-(5-cyano-1H-pyrrolo[2,3-b]pyridine-3-carbonyl)-2-fluoro-phenyl]-amide]: the half-inhibitory concentration (IC50) on C-Raf and at B-Raf V600E was ≤ 10 µM in each case.

In the case of `N#Cc1cnc2[nH]cc(C(=O)c3cccc(NS(=O)(=O)N4CCOCC4)c3F)c2c1` [P-2421, Morpholine-4-sulfonic acid [3-(5-cyano-1H-pyrrolo[2,3-b]pyridine-3-carbonyl)-2-fluoro-phenyl]-amide], the 50% inhibitory concentration (IC50) against C-Raf and at B-Raf V600E was ≤ 10 µM throughout.

On to `COc1ncc(-c2cnc3[nH]cc(C(=O)c4cccc(NS(=O)(=O)N(C)C)c4F)c3c2)cn1` [P-2424, N,N-dimethylamino-sulfonic acid {2-fluoro-3-[5-(2-methoxy-pyrimidin-5-yl)-1H-pyrrolo[2,3-b]pyridine-3-carbonyl]-phenyl}-amide], for which the concentration for half-maximal inhibition (IC50) against C-Raf, at B-Raf V600E and at Kdr was ≤ 10 µM each time.

Consider `O=C(c1cccc(NS(=O)(=O)C2CCCC2)c1)c1c[nH]c2ncc(F)cc12` [P-2463, Cyclopentanesulfonic acid [3-(5-fluoro-1H-pyrrolo[2,3-b]pyridine-3-carbonyl)-phenyl]-amide], for which the IC50 against Kdr is ≤ 10 µM.

As for `CN(C)S(=O)(=O)Nc1cccc(C(=O)c2c[nH]c3ncc(Cl)cc23)c1` [P-2470, N,N-dimethylamino-sulfonic acid [3-(5-chloro-1H-pyrrolo[2,3-b]pyridine-3-carbonyl)-phenyl]-amide], at Kdr, the IC50 is ≤ 10 µM.

For the compound `O=C(c1c(F)ccc(NS(=O)(=O)c2ccc(C(F)(F)F)cc2)c1F)c1c[nH]c2ncc(C3CC3)cc12` [P-2483, N-[3-(5-Cyclopropyl-1H-pyrrolo[2,3-b]pyridine-3-carbonyl)-2,4-difluoro-phenyl]-4-trifluoromethyl-benzenesulfonamide], the half-maximal inhibitory concentration (IC50) against C-Raf and against Kdr was ≤ 10 µM throughout.

(Values after patent US20120122860A1, “SOLID FORMS OF SULFONAMIDES AND AMINO ACIDS” (Plexxikon, Inc., priority 2009, published 2012).)
